Test results reported in patent US20260294933A1, “USE OF COMPOUND IN PREVENTION OR TREATMENT OF RADIATION-INDUCED BRAIN INJURY” (GUANGZHOU CELLPROTEK PHARMACEUTICAL CO., LTD, priority 2023, published 2026).
“Also recorded” adds a separate entry of the source.

Assays:
[1] = system: radiation-induced brain injury; conditions: patients treated with bevacizumab; cited from earlier work
[2] = system: GFAP positive astrocytes; assay: GFAP immunofluorescence staining, activation of astrocytes in the thalamus of the lesion; format: in vivo, C57BL/6 mice
From the text: FIG. 3: YC-6 inhibited the activation of astrocytes after radiation-induced brain injury. Pannel A: GFAP immunofluorescence staining in the thalamus of the brain lesion, with a white ruler indicating […]. Pannel B: Counting GFAP positive cells in Pannel A, i.e., randomly selecting three fields of view in the brain slice injury lesion area and using Image J software to count GFAP positive cells in the selected fields as the number of GFAP positive cells per unit area, and taking the average value. **** represents P<0.0001, n=5.
(§1) The coordinates of the irradiation center positioning point were: 2 mm behind the anterior fontanelle (AP), 2 mm left of the midline (L), and 2 mm below the skull dura mater (dorsal ventral DV).
(§2) Immunofluorescence Staining of GFAP, CC1, and MAG Proteins in Brain Slices

[3] = system: MAG; assay: MAG immunofluorescence intensity in the thalamus of the lesion; format: in vivo, C57BL/6 mice
From the text: (§3) Pannel A: Immunofluorescence staining of CC1 and MAG in the thalamus of the brain lesion, with a white ruler indicating […]. Pannel B: Counting CC1 positive cells in Pannel A, i.e., randomly selecting three fields of view in the brain slice injury lesion area and using Image J software to count CC1 positive cells in the selected fields as the number of CC1 positive cells per unit area, and taking the average value. Pannel C: Statistical analysis of MAG immunofluorescence intensity in Pannel A, i.e., randomly selecting three fields of view in the brain slice injury lesion area and using Image J software to quantify the fluorescence signal intensity of MAG in the selected fields as the fluorescence intensity of MAG per unit pixel area, and taking the average value. **** represents P<0.0001, n=5.
as §1, §2

[4] = system: gamma knife irradiation induced focal radiation-induced brain injury (brain lesions); assay: Brain lesion volume by MRI, gamma knife irradiation induced focal radiation-induced brain injury in C57BL/6 mice; format: in vivo
Method: as §1
Quantitative Analysis of Brain Lesion Volume Using Magnetic Resonance imaging (MRI)
Prior to detection, each mouse was injected with 200 μl of contrast agent solution at a concentration of approximately 48 mg/ml.

[5] = system: CC1 positive oligodendrocytes; assay: CC1 immunofluorescence staining, mature oligodendrocytes in the thalamus of the lesion; format: in vivo, C57BL/6 mice
From the text: as §3, §1, §2

[6] = system: blood-brain barrier and microvessels; conditions: animals; cited from earlier work
[7] = YC-6 administration for 8 weeks

Question: What does the source list for “bevacizumab: bevacizumab, used in a randomized double-blind placebo-controlled study in 2011”?
Answer: neurological function [1]: significant improvement in neurological function; reduction in brain injury lesions [1]: varying degrees of reduction in brain injury lesions

Question: Which results are given for `C[C@@]12CCCC1C1C[C@@H](O)[C@@]3(O)C[C@@H](O)CC[C@]3(C)C1CC2` (stereo partly drawn) [YC-6, 5α-androst-3β,5,6β-triol]?
Answer: Number of astrocytes (GFAP positive) ([2]; 60 mg/kg/d for 8 weeks, 8 weeks after gamma knife radiation, Mean ± SEM, n=5, P < 0.0001 vs RBI + Saline (558.20 ± 10.07), Control + Saline 57.80 ± 2.69): 357.00 ± 10.61 Astrocytes/mm^2; activation of astrocytes (in words) [2, 7]: significantly inhibited the activation of astrocytes; MAG fluorescence signal intensity ([3]; 60 mg/kg/d for 8 weeks, 8 weeks after gamma knife radiation, Mean ± SEM, n=5, P < 0.0001 vs RBI + Saline (0.31 ± 0.018), Control + Saline 1.04 ± 0.047): 0.44 ± 0.018; MAG level (in words) [3, 7]: restored MAG level; volume of brain lesions (in words) ([4]; 60 mg/kg/d for 2 weeks, followed by discontinuation until week 8): significantly reduced the volume of brain lesions; also recorded: significantly reducing lesion volume; volume of brain lesions (in words) ([4]; full 8-week administration, compared to 2-week administration): showed a trend towards further reducing the volume of brain lesions; also recorded: showed a better trend in reducing lesion volume compared to short-term administration; Number of mature oligodendrocytes (CC1 positive) ([5]; 60 mg/kg/d for 8 weeks, 8 weeks after gamma knife radiation, Mean ± SEM, n=5, P < 0.0001 vs RBI + Saline (200.60 ± 21.47), Control + Saline 1608.00 ± 47.92): 506.40 ± 30.48 Oligodendrocytes/mm^2; reduction of oligodendrocytes (in words) [5, 7]: significantly inhibited the reduction of oligodendrocytes

B1: mouse nerve growth factor for injection: mouse nerve growth factor for injection (protein, UniProt P01139 122-241, looked up)
Beta-nerve growth factor: SSTHPVFHMGEFSVCDSVSVWVGDKTTATDIKGKEVTVLAEVNINNSVFRQYFFETKCRASNPVESGCRGIDSKHWNSYCTTTHTFVKALTTDEKQAAWRFIRIDTACVCVLSRKATRRG
Question: Which “damage to the blood-brain barrier and repair of microvessels” value [6] does the source give for B1 here?
Answer: The value was “can alleviate damage to the blood-brain barrier and repair microvessels in animals”.
